# Where two headings read alike, the source gives them in different places.
# Key:
# Experiment in all cases: Mueller-Hinton agar dilution method (MIC)
# Assay type in all cases: cell-based
# [1] = system: Staphylococcus aureus
# [2] = system: Enterobacter aerogenes; conditions: Klebsiella aerogenes; strain STFD-79-14; Table III; read-out: Minimal Inhibitory Concentration
# [3] = system: Serratia marcescens; conditions: read-out: Minimal Inhibitory Concentration
# [4] = system: Enterobacter cloacae; conditions: strain K-79-16, Table III, read-out: Minimal Inhibitory Concentration
# [5] = system: Klebsiella pneumoniae; conditions: Table III
# [6] = system: Salmonella (arizona); conditions: strain QHC-77-3, Table III, read-out: Minimal Inhibitory Concentration
# [7] = system: Enterococcus sp.; conditions: Table III
# [8] = system: Pseudomonas aeruginosa; conditions: read-out: Minimal Inhibitory Concentration
# [9] = system: Acinetobacter sp.; conditions: read-out: Minimal Inhibitory Concentration
# [10] = system: Salmonella sp.; conditions: strain SSC-79-57, Table III, read-out: Minimal Inhibitory Concentration
# Description: (§1) The results appear in Tables I, II, and III.
# [11] = system: Micrococcus luteus; conditions: strain PCI 1001, Table III, read-out: Minimal Inhibitory Concentration
# Description: as §1
# [12] = system: Proteus rettgeri; conditions: Providencia rettgeri; strain N-76-1; Table III; read-out: Minimal Inhibitory Concentration
# [13] = system: Escherichia coli; conditions: read-out: Minimal Inhibitory Concentration
# [14] = system: Proteus morganii; conditions: Morganella morganii, strain K-79-25; Table III; read-out: Minimal Inhibitory Concentration
# [15] = beta-lactamase negative, strain SSC 79-3, Table II, read-out: Minimal Inhibitory Concentration
# [16] = beta-lactamase negative, strain SSC 79-5, Table II, read-out: Minimal Inhibitory Concentration
# [17] = beta-lactamase negative, strain SSC 79-7, Table II, read-out: Minimal Inhibitory Concentration
# [18] = beta-lactamase negative, strain SSC 79-9, Table II, read-out: Minimal Inhibitory Concentration
# [19] = beta-lactamase negative, strain SSC 79-10, Table II, read-out: Minimal Inhibitory Concentration
# [20] = beta-lactamase negative, strain SSC 79-11, Table II, read-out: Minimal Inhibitory Concentration
# [21] = beta-lactamase negative, strain SSC 79-14, Table II, read-out: Minimal Inhibitory Concentration
# [22] = beta-lactamase negative, strain SSC 79-15, Table II, read-out: Minimal Inhibitory Concentration
# [23] = beta-lactamase negative, strain SSC 79-17, Table II, read-out: Minimal Inhibitory Concentration
# [24] = beta-lactamase positive, strain SSC 79-24, Table II, read-out: Minimal Inhibitory Concentration
# [25] = beta-lactamase positive, strain SSC 79-27, Table II, read-out: Minimal Inhibitory Concentration
# [26] = beta-lactamase positive, strain SSC 79-28, Table II, read-out: Minimal Inhibitory Concentration
# [27] = beta-lactamase positive, strain SSC 79-36, Table II, read-out: Minimal Inhibitory Concentration
# [28] = beta-lactamase positive, strain SSC 79-38, Table II, read-out: Minimal Inhibitory Concentration
# [29] = beta-lactamase positive, strain SSC 79-39, Table II, read-out: Minimal Inhibitory Concentration
# [30] = beta-lactamase positive, strain SSC 79-41, Table II, read-out: Minimal Inhibitory Concentration
# [31] = beta-lactamase positive, strain SSC 79-44, Table II, read-out: Minimal Inhibitory Concentration
# [32] = beta-lactamase positive, strain SSC 79-47, Table II, read-out: Minimal Inhibitory Concentration
smiles,measurement,setting,value
"CO/N=C(\C(=O)N[C@@H]1C(=O)N2C(C(=O)O)=C(CSc3nnnn3C)CS[C@H]12)c1csc(N)n1 [Compound III, Cefmenoxime]",MIC,[1]; [15],1 µg/mL
same,MIC,[1]; [16],4 µg/mL
same,MIC,[1]; [17],1 µg/mL
same,MIC,[1]; [18],2 µg/mL
same,MIC,[1]; [19],1 µg/mL
same,MIC,[1]; [20],1 µg/mL
same,MIC,[1]; [21],4 µg/mL
same,MIC,[1]; [22],4 µg/mL
same,MIC,[1]; [23],2 µg/mL
same,MIC,[1]; [24],32 µg/mL
same,MIC,[1]; [25],2 µg/mL
same,MIC,[1]; [26],2 µg/mL
same,MIC,[1]; [27],2 µg/mL
same,MIC,[1]; [28],2 µg/mL
same,MIC,[1]; [29],4 µg/mL
same,MIC,[1]; [30],4 µg/mL
same,MIC,[1]; [31],2 µg/mL
same,MIC,[1]; [32],2 µg/mL
"CCN1CCN(C(=O)N[C@@H](C(=O)N[C@@H]2C(=O)N3C(C(=O)O)=C(CSc4nnnn4C)CS[C@H]23)c2ccc(O)cc2)C(=O)C1=O [Compound VII, Cefaperazone]",MIC,[1]; [15],0.5 µg/mL
same,MIC,[1]; [16],2 µg/mL
same,MIC,[1]; [17],0.5 µg/mL
same,MIC,[1]; [18],0.5 µg/mL
same,MIC,[1]; [19],0.5 µg/mL
same,MIC,[1]; [20],0.25 µg/mL
same,MIC,[1]; [21],2 µg/mL
same,MIC,[1]; [22],2 µg/mL
same,MIC,[1]; [23],1 µg/mL
same,MIC,[1]; [24],128 µg/mL
same,MIC,[1]; [25],1 µg/mL
same,MIC,[1]; [26],2 µg/mL
same,MIC,[1]; [27],2 µg/mL
same,MIC,[1]; [28],1 µg/mL
same,MIC,[1]; [29],2 µg/mL
same,MIC,[1]; [30],2 µg/mL
same,MIC,[1]; [31],1 µg/mL
same,MIC,[1]; [32],2 µg/mL
"CO/N=C(\C(=O)N[C@@H]1C(=O)N2C(C(=O)O)=C(CSc3snnc3C)CS[C@H]12)c1csc(N)n1 [Compound Ib(i), 7-β-[α-syn-methoxyimino-α-(2-aminothiazol-4-yl)acetamido]-3-[(1,2,3-thiadiazol-4-methyl-5-ylthio)methyl]-3-cephem-4-carboxylic acid]",MIC,[2],0.12 µg/mL
same,MIC,"[3]; strain QHC-77-2, Table III",2 µg/mL
same,MIC,"[3]; strain TUL-78-15, Table III",2 µg/mL
same,MIC,[4],0.25 µg/mL
same,MIC,"[5]; Klebsiella pneumoniae, strain STFD-79-6, read-out: Minimal Inhibitory Concentration",≤ 0.03 µg/mL
same,Minimal Inhibitory Concentration,[5]; strain AD,≤ .03 µg/mL
same,Minimal Inhibitory Concentration,[5]; strain SSC-78-1,≤ .03 µg/mL
same,MIC,"[1]; strain FU-79-19-2, Table III, read-out: Minimal Inhibitory Concentration",0.5 µg/mL
same,MIC,"[1]; strain SSC-79-18, Table III, read-out: Minimal Inhibitory Concentration",0.25 µg/mL
same,MIC,"[1]; strain SSC-80-15, Table III, read-out: Minimal Inhibitory Concentration",1 µg/mL
same,MIC,"[1]; strain Smith, Table III, read-out: Minimal Inhibitory Concentration",0.25 µg/mL
same,MIC,[6],0.06 µg/mL
same,MIC,"[7]; Enterococcus, strain OSU-75-1, read-out: Minimal Inhibitory Concentration",8 µg/mL
same,Minimal Inhibitory Concentration,[7]; strain SM-77-15,8 µg/mL
same,MIC,"[8]; ATCC27853, strain ATCC 27853, Table III",64 µg/mL
same,MIC,"[8]; strain 12-4-4, Table III",64 µg/mL
same,MIC,"[8]; strain SSC-78-13, Table III",64 µg/mL
same,MIC,"[9]; strain K-77-1, Table III",4 µg/mL
same,MIC,"[9]; strain STFD-79-17, Table III",32 µg/mL
same,MIC,[10],1 µg/mL
same,MIC,[11],≤ 0.03 µg/mL
same,MIC,[12],≤ 0.03 µg/mL
same,MIC,"[13]; ATCC25922, strain ATCC 25922, Table III",≤ 0.03 µg/mL
same,MIC,"[13]; strain #311, Table III",0.06 µg/mL
same,MIC,"[13]; strain ESS 22-31, Table III",≤ 0.03 µg/mL
same,MIC,"[13]; strain STFD-79-20, Table III",≤ 0.03 µg/mL
same,MIC,[14],≤ 0.03 µg/mL
"CO[C@@]1(NC(=O)C(C(=O)O)c2ccc(O)cc2)C(=O)N2C(C(=O)O)=C(CSc3nnnn3C)CO[C@@H]21 (stereo partly drawn) [Compound V, Moxalactam]",MIC,[1]; [15],2 µg/mL
same,MIC,[1]; [16],8 µg/mL
same,MIC,[1]; [17],2 µg/mL
same,MIC,[1]; [18],2 µg/mL
same,MIC,[1]; [19],2 µg/mL
same,MIC,[1]; [20],2 µg/mL
same,MIC,[1]; [21],4 µg/mL
same,MIC,[1]; [22],8 µg/mL
same,MIC,[1]; [23],4 µg/mL
same,MIC,[1]; [24],32 µg/mL
same,MIC,[1]; [25],4 µg/mL
same,MIC,[1]; [26],4 µg/mL
same,MIC,[1]; [27],4 µg/mL
same,MIC,[1]; [28],2 µg/mL
same,MIC,[1]; [29],4 µg/mL
same,MIC,[1]; [30],4 µg/mL
same,MIC,[1]; [31],2 µg/mL
same,MIC,[1]; [32],4 µg/mL
CO/N=C(\C(=O)N[C@@H]1C(=O)N2C(C(=O)O)=C(COC(C)=O)CS[C@H]12)c1csc(N)n1 [Compound II],MIC,"[1]; read-out: Minimal Inhibitory Concentration, beta-lactamase negative, strain SSC 79-3, Table II",0.5 µg/mL
same,MIC,"[1]; read-out: Minimal Inhibitory Concentration, beta-lactamase negative, strain SSC 79-5, Table II",1 µg/mL
same,MIC,"[1]; read-out: Minimal Inhibitory Concentration, beta-lactamase negative, strain SSC 79-7, Table II",0.5 µg/mL
same,MIC,"[1]; read-out: Minimal Inhibitory Concentration, beta-lactamase negative, strain SSC 79-9, Table II",0.5 µg/mL
same,MIC,"[1]; read-out: Minimal Inhibitory Concentration, beta-lactamase negative, strain SSC 79-10, Table II",0.5 µg/mL
same,MIC,"[1]; read-out: Minimal Inhibitory Concentration, beta-lactamase negative, strain SSC 79-11, Table II",0.5 µg/mL
same,MIC,"[1]; read-out: Minimal Inhibitory Concentration, beta-lactamase negative, strain SSC 79-14, Table II",2 µg/mL
same,MIC,"[1]; read-out: Minimal Inhibitory Concentration, beta-lactamase negative, strain SSC 79-15, Table II",2 µg/mL
same,MIC,"[1]; read-out: Minimal Inhibitory Concentration, beta-lactamase negative, strain SSC 79-17, Table II",1 µg/mL
same,MIC,"[1]; read-out: Minimal Inhibitory Concentration, beta-lactamase positive, strain SSC 79-24, Table II",16 µg/mL
same,MIC,"[1]; read-out: Minimal Inhibitory Concentration, beta-lactamase positive, strain SSC 79-27, Table II",1 µg/mL
same,MIC,"[1]; read-out: Minimal Inhibitory Concentration, beta-lactamase positive, strain SSC 79-28, Table II",1 µg/mL
same,MIC,"[1]; read-out: Minimal Inhibitory Concentration, beta-lactamase positive, strain SSC 79-36, Table II",1 µg/mL
same,MIC,"[1]; read-out: Minimal Inhibitory Concentration, beta-lactamase positive, strain SSC 79-38, Table II",1 µg/mL
same,MIC,"[1]; read-out: Minimal Inhibitory Concentration, beta-lactamase positive, strain SSC 79-39, Table II",1 µg/mL
same,MIC,"[1]; read-out: Minimal Inhibitory Concentration, beta-lactamase positive, strain SSC 79-41, Table II",2 µg/mL
same,MIC,"[1]; read-out: Minimal Inhibitory Concentration, beta-lactamase positive, strain SSC 79-44, Table II",1 µg/mL
same,MIC,"[1]; read-out: Minimal Inhibitory Concentration, beta-lactamase positive, strain SSC 79-47, Table II",1 µg/mL
"CO/N=C(\C(=O)N[C@@H]1C(=O)N2C(C(=O)O)=CCS[C@H]12)c1csc(N)n1 [Compound IV, Ceftizoxime]",MIC,[1]; [15],1 µg/mL
same,MIC,[1]; [16],1 µg/mL
same,MIC,[1]; [17],0.5 µg/mL
same,MIC,[1]; [18],1 µg/mL
same,MIC,[1]; [19],1 µg/mL
same,MIC,[1]; [20],0.5 µg/mL
same,MIC,[1]; [21],4 µg/mL
same,MIC,[1]; [22],1 µg/mL
same,MIC,[1]; [23],1 µg/mL
same,MIC,[1]; [24],> 128 µg/mL
same,MIC,[1]; [25],0.5 µg/mL
same,MIC,[1]; [26],0.5 µg/mL
same,MIC,[1]; [27],1 µg/mL
same,MIC,[1]; [28],0.5 µg/mL
same,MIC,[1]; [29],4 µg/mL
same,MIC,[1]; [30],1 µg/mL
same,MIC,[1]; [31],0.5 µg/mL
same,MIC,[1]; [32],1 µg/mL
"CO[C@@]1(NC(=O)Cc2cccs2)C(=O)N2C(C(=O)O)=C(COC(N)=O)CS[C@@H]21 [Compound VI, Cefoxitin]",MIC,[1]; [15],2 µg/mL
same,MIC,[1]; [16],2 µg/mL
same,MIC,[1]; [17],1 µg/mL
same,MIC,[1]; [18],1 µg/mL
same,MIC,[1]; [19],1 µg/mL
same,MIC,[1]; [20],1 µg/mL
same,MIC,[1]; [21],2 µg/mL
same,MIC,[1]; [22],4 µg/mL
same,MIC,[1]; [23],2 µg/mL
same,MIC,[1]; [24],16 µg/mL
same,MIC,[1]; [25],2 µg/mL
same,MIC,[1]; [26],2 µg/mL
same,MIC,[1]; [27],2 µg/mL
same,MIC,[1]; [28],2 µg/mL
same,MIC,[1]; [29],4 µg/mL
same,MIC,[1]; [30],4 µg/mL
same,MIC,[1]; [31],2 µg/mL
same,MIC,[1]; [32],2 µg/mL

# From patent US4399132A, “7-Beta-[alpha-syn-methoxyimino-alpha-(2-aminothiazol-4-yl)-aceta mido]-3-[(1,2,3-thiadiazol-5-ylthio)methyl]-3-cephem-4-carboxylic acid and C1 -C6 alkyl derivatives thereof” (American Cyanamid Company, priority 1981, dated 1983)
